Assay [1] concerns Histoplasma capsulatum Stamm Hist 2. As to the kind of experiment: microbe, parasite or virus in culture. It is filed as cell-based. The following applies: 288 h, read-out: MHC (µg/ml) Histoplasma capsulatum.
Another assay concerns Puccinia coronata. As to the kind of experiment: Puccinia coronata protective spray test on oat seedlings. The following applies: oat seedlings FLAEMINGSKRONE, infected 2 days after spraying, read on day 9 after infection vs infected untreated control. It is filed as in vivo. The procedure:
30-40 Haferkeimlinge der Sorte FLAEMINGSKRONE (verteilt auf 2 Töpfe mit 7 cm Durchmesser) wurden jeweils im Einblattstadium mit einer wässerigen Dispersion der Testsubstanz (wie allgemein üblich aufbereitet als Spritzpulver) allseitig gründlich besprüht und anschliessend in einer Klimakabine bei 17°C. 70-80% rel. Luftfeuchtigkeit und einer Photoperiode von 16 Stunden weiterkultiviert. Nach 2 Tagen erfolgte die Infektion der Versuchspflanzen durch Besprühen mit in dest. Wasser suspendierten Uredosporen (300'000 Sporen/ml) vor. Puccinia coronata. Danach wurden die Pflanzen während 24 Stunden bei 20°C und einer Luftfeuchtigkeit von über 90W im Dunkeln inkubiert und anschliessend in ein Gewächshaus mit einer Temperatur von 22-26 °C, einer rel. Luftfeuchtigkeit von 70% und einer Photoperiode von 18 Stunden übe führt. Am 9. Tage nach der Infektion wurde die durch Pucrinia coronata befallene Blattfläche in % gegenüber der infizierten, nicht behandelten Kontrolle ermittelt. Die ResLltate sind in Tabelle I zusammengefasst.

In another assay the test system is Erysiphe graminis. The assay is described as follows: Erysiphe graminis protective spray test on barley seedlings (greenhouse). The class given is in vivo. The following applies: barley seedlings HERTA, infected 2 days after spraying, read 7 days after infection vs infected untreated control. The protocol: 30-40 Gerstenkeimlinge der Sorte HERTA (verteilt auf 2 Töpfe mit 7 cm Durchmesser) wurden jeweils im Einblattstadium mit einer wässerigen Dispersion der Testsubstanz (wie allgemein üblich aufbereitet als Spritzpulver) allseitig gründlich besprüht und anschliessend bei 22-26°C, 80% rel. Luftfeuchtigkeit und einer Photoperiode von 16 Stunden im Gewächshaus weiterkultiviert. Die Infektion erfolgte 2 Tage nach der Behandlung durch Bestäuben der Versuchspflanzen mit Kon dien von Erysiphe graminis. 7 Tage nach der Infektion wurde ::ie durch Erysiphe graminis befallene Blattfläche in % gegenüber derjenigen der infizierten, nicht behandelten Kontrolle ermittelt. Die Resultate sind in Tabelle I zusammengefasst.

Another assay deals with Venturia inaequalis. As to the kind of experiment: Venturia inaequalis protective spray test on apple seedlings. The class given is in vivo. The following applies: infected 2 days after spraying, read on day 13 after infection vs infected untreated control. The procedure:
3 Apfelpflänzchen (verteilt auf 3 Töpfe mit 5 cm Durchmesser) aus Samen der Sorte GOLDIN DELICIOUS wurden im 4- bis 5-Blattstadium mit einer wässerigen Dispersion der Testsubstanz (wie allgemein üblich aufbereitet als Spritzpulver) allseitig gründlich besprüht. Die behandelten Pflanzen wurden anschliessend während 2 Tagen bei 17°C, 70-80%rel. Luftfeuchtigkeit und einer Photoperiode von 14 Stunden weiterkultiviert. Danach erfolgte die Infektion der Apfelsämlinge durch Besprühen mit in dest. Wasser suspendierten Konidien (200'000 Konidien/ml) von Venturia inaequalis. Nach der Infektion wurden die Pflanzen im Dunkeln während 48 Stunden bei 16-18°C und einer rel. Luftfeuchtigkeit von über 90% inkubiert und anschliessend in ein schattiertes Gewächshaus mit einer Temperatur von 22-26 °C und einer rel. Luftfeuchtigkeit von über 80% überführt. Am 13. Tage nach der Infektion erfolgte die Ermittlung der durch Venturia inaequalis befallenen Blattfläche gegenüber der infizierten, nicht behandelten Kontrolle. Die Resultate sind in Tabelle II zusammengefasst.

In assay [2] the test system is Candida albicans Stamm H 29. The assay is described as follows: Candida albicans in vitro agar dilution test. It is filed as cell-based. The following applies: STAMMH29, 168 h, minimal concentration fully preventing growth, tested at 100, 10, 1 mcg/ml, 7 days at 37°C, values mostly maximum values, true MHC may be lower. The procedure:
Methode: Eine standardisierte Suspension der Hefeform von Candida albicans Stamm H 29 (ca. 300 Zellen/5 ml, das fünfzigfache der zum Angehen der Kultur notwendigen geringsten Keimzahl) wird gleichzeitig mit geeigneten Präparatlösungen in verflüssigten und auf 50°C abgekühlten Agarnährboden nach Rowley und Huber eingegossen. Lösung der Präparate in Wasser oder Polyäthylenglykol (Carbowax 400). Präparate, die weder in Wasser noch in Polyäthylenglykol löslich sind, werden fein suspendiert. Endkonzentrationen der Präparate im Nährboden 100, 10 und 1 mcg/ml. Endkonzentration von Polyäthylenglykol 5%. 7 Tage Bebrütung bei 37°C.
(§1) Auswertung: Ablesung des Pilzwachstums mit blossem Auge.
(§2) Resultate: Angabe der minimalen Präparatkonzentration in mcg/ml, die das Wachstum des Pilzes vollständig verhindert (MHC). Die Resultate sind für einige Beispiele in der nachstehenden Tabelle II zusammengefasst.
In general terms: Agar dilution tests growth on a series of plates holding different concentrations.

Assay [3] has as its system Trichophyten mentagrophytes Stamm 109. As to the kind of experiment: Trichophyton mentagrophytes in vitro agar dilution test. It is filed as cell-based. The following applies: STAMM109, 168 h, minimal concentration fully preventing growth, tested at 100, 10, 1, 0,1, 0,01 mcg/ml, 7 days at 37°C, values mostly maximum values, true MHC may be lower, read-out: MHC (µg/ml) Trichophyton mentagr. The protocol:
Methode: Eine standardisierte Suspension der Hefeform von Konidien (Sporen) von Trichophyten mentagrophytes Stamm 109 (ca. das Fünfzigfache der zum Angehen der Kultur notwendigen geringsten Keimzahl) wird gleichzeitig mit geeigneten Präparatlösungen in verflüssigten und auf 50°C abgekühlten Agarnährboden nach Rowley und Huber eingegossen. Lösung der Präparate in Wasser oder Polyäthylenglykol (Carbowax 400). Präparate, die weder in Wasser noch in Polyäthylenglykol löslich sind, werden fein suspendiert. End- . konzentrationen der Präparate im Nährboden 100, 10, 1, 0,1 und 0,01 mcg/ml. Endkonzentration von Polyäthylenglykol 5%. 7 Tage Bebrütung bei 37°C.
as §1, §2

In brackets after ≈: the same amount, converted by molar mass.

In the case of `CCC(C)(C)c1ccc(C(C)=C(C)CN2CCC(=O)CC2)cc1` [1-[3-(p-tert.-Amyl-phenyl)-2,3-dimethyl-2-propenyl]-4-piperidon], the MIC in assay [1], in assay [2] and in assay [3] was 10 µg/mL (≈ 31.9 µM) each time. Besides, the “Wirkung (in %) Puccinia coronata” value was 90% in the assay with Puccinia coronata (5 mg/l Spritzbrühe); 95% with Puccinia coronata (16 mg/l Spritzbrühe); 100% in the assay with Puccinia coronata (50 mg/l Spritzbrühe); 100% in the assay on Puccinia coronata (160 mg/l Spritzbrühe); 100% in the assay on Puccinia coronata (500 mg/l Spritzbrühe). The “Wirkung (in %) Erysiphe graminis” value in the assay with Erysiphe graminis (5 mg/l Spritzbrühe) was determined as 60%; in the assay with Erysiphe graminis (16 mg/l Spritzbrühe), 85%; in the assay on Erysiphe graminis (50 mg/l Spritzbrühe), 90%; in the assay with Erysiphe graminis (160 mg/l Spritzbrühe), 98%. For the same compound, the “Wirkung (in %) Venturia inaequalis” value in the assay on Venturia inaequalis (5 mg/l Spritzbrühe) is given as 0%; with Venturia inaequalis (16 mg/l Spritzbrühe), 37%; in the assay with Venturia inaequalis (50 mg/l Spritzbrühe), 83%; with Venturia inaequalis (160 mg/l Spritzbrühe), 98%.

As for `CCC(C)(C)c1ccc(CC(C)CN2CCC(=O)CC2)cc1` (stereo not drawn) [1-[3-(p-tert.-Amyl-phenyl)-2-methyl-propyl]-4-piperidon], the MIC in assay [1], in assay [2] and in assay [3] was 10 µg/mL (≈ 33.2 µM) each time. For the same compound, the “Wirkung (in %) Puccinia coronata” value is on record as 0% in the assay with Puccinia coronata (5 mg/l Spritzbrühe); 10% in the assay on Puccinia coronata (16 mg/l Spritzbrühe); 90% in the assay on Puccinia coronata (50 mg/l Spritzbrühe); 98% in the assay with Puccinia coronata (160 mg/l Spritzbrühe); 100% in the assay with Puccinia coronata (500 mg/l Spritzbrühe). The “Wirkung (in %) Erysiphe graminis” value turned out to be 20% in the assay with Erysiphe graminis (5 mg/l Spritzbrühe); 80% in the assay on Erysiphe graminis (16 mg/l Spritzbrühe); 95% in the assay with Erysiphe graminis (50 mg/l Spritzbrühe); 100% in the assay on Erysiphe graminis (160 mg/l Spritzbrühe); 100% with Erysiphe graminis (500 mg/l Spritzbrühe). The “Wirkung (in %) Venturia inaequalis” value with Venturia inaequalis (500 mg/l Spritzbrühe) is listed as 20%.

These data come from EP0005541A2, “Substituted piperidine, morpholine or piperidone derivatives, fungicides containing these compounds, process for their preparation and their use, and the use of these compounds as fungicides” (F. HOFFMANN-LA ROCHE & CO. Aktiengesellschaft, priority 1978, dated 1979).
